Assay results: article PMC9541279 (The Plant Journal, 2022)

Target: T1, DkSCPL1 and DkSCPL2 co-expressed (Diospyros kaki, UniProt C6L1N2)
T1 sequence (C6L1N2 36-491): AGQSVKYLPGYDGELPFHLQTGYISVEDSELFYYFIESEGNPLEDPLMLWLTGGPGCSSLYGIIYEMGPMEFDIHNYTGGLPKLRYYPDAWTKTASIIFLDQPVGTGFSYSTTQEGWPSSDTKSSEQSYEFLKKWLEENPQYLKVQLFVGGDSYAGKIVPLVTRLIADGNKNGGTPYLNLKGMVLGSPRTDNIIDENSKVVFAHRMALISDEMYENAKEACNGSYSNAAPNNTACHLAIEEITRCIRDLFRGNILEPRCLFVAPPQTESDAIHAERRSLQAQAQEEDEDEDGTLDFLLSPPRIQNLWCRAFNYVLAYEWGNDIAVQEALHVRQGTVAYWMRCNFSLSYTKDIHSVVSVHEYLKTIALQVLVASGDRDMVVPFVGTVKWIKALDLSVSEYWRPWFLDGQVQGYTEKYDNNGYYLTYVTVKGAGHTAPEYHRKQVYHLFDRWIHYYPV
T1 sequence (A4PB66 1-452 partner): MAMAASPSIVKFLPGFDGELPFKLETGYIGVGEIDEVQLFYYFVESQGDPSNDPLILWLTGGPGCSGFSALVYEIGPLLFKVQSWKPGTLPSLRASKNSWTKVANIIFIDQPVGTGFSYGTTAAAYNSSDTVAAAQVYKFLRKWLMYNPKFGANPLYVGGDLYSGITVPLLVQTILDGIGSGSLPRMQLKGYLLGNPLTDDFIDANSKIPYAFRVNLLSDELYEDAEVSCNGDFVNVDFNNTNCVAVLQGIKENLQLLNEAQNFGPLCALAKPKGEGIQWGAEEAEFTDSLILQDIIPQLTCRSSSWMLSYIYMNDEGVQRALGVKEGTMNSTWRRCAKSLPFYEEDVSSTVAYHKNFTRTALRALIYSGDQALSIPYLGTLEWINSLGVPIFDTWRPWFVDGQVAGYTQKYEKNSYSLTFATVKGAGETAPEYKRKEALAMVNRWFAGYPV
Assay: EGCG formation, UPLC-MS/MS, crude extract of N. benthamiana leaves
Format: biochemical
Details: 50 mM phosphate pH 6.0, 30 °C

| SMILES | EGCG formation, UPLC-MS/MS, crude extract of N. benthamiana leaves (acyl donor βG) | EGCG formation, UPLC-MS/MS, crude extract of N. benthamiana leaves (acyl acceptor EGC) |
| --- | --- | --- |
| Oc1cc(O)c2c(c1)O[C@H](c1cc(O)c(O)c(O)c1)[C@H](O)C2 [EGC] | the two paralogs when co‐expressed catalyzed the formation of EGCG | – |
| O=C(O[C@@H]1O[C@H](CO)[C@@H](O)[C@H](O)[C@H]1O)c1cc(O)c(O)c(O)c1 [βG] | – | the two paralogs when co‐expressed catalyzed the formation of EGCG |
